The record followed here is ChEMBL document CHEMBL4680194, “Synthesis and biological evaluation of 1,2,4-triazole derivatives as potential neuroprotectant against ischemic brain injury” (Eur J Med Chem, 2020).

Data set [1] deals with T1, Nuclear factor erythroid 2-related factor 2 (Rattus norvegicus) (UniProt O54968).
T1 sequence (whole entry): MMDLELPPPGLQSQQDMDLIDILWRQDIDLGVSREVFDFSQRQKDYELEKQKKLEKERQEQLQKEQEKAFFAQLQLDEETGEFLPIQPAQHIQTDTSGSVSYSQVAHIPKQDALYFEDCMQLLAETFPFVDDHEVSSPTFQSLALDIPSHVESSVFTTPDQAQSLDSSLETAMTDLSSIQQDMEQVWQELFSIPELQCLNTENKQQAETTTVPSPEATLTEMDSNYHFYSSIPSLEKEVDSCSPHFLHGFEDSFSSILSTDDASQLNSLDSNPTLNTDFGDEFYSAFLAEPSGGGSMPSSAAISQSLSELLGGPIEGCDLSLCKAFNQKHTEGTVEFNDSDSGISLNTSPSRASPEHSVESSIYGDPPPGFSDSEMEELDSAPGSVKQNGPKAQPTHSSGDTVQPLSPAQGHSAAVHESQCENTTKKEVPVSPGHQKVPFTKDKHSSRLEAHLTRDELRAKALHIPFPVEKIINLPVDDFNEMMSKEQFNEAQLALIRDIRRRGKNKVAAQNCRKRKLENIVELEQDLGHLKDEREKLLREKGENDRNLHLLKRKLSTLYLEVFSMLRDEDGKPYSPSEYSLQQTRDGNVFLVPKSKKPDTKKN
As to the kind of experiment: Induction of Nrf2 nuclear translocation in rat PC-12 cells assessed as H2O2-induced GSH-px level at 2.5 uM incubated for 1 hr followed by H2O2 stimulation and measured after 5 hrs (reference value: 45.92 +/- 3.64 mU/mg). It is filed as cell-based. The following applies: time 6.0 hrs.

The subject of data set [2] is PC-12. The experiment in a line: Cytoprotective activity against H2O2-induced cell death in rat PC-12 cells assessed as increase in cell viability at 10 uM incubated for 1 hr followed by H2O2 stimulation and measured after 5 hrs by MTT assay. The data set is classed as functional. The note with it: time 6 hrs. For orientation: Tetrazolium dyes change colour on reduction, which living cells bring about.

Data set [3] concerns the target T1, Nuclear factor erythroid 2-related factor 2 (Rattus norvegicus). As to the kind of experiment: Induction of Nrf2 nuclear translocation in rat PC-12 cells assessed as SNP-induced SOD level at 2.5 uM incubated for 1 hr followed by SNP stimulation and measured after 24 hrs (reference value: 23.74 +/- 2.02 U/mg). The following applies: time 25.0 hrs. It is filed as cell-based.

The target is the same in data set [4]. As to the kind of experiment: Induction of Nrf2 nuclear translocation in rat PC-12 cells assessed as H2O2-induced GSH level at 2.5 uM incubated for 1 hr followed by H2O2 stimulation and measured after 5 hrs (reference value: 65.52 +/- 1.44 nM/mg). The data set is classed as cell-based. The note with it: time 6.0 hrs.
Data set [5] can be described thus: Toxicity in […] assessed as body weight at 400 mg/kg, ip measured on day 1 (reference value: 24.4 to 28.4 g). The data set is classed as organism-based. The following applies: in vivo, 24 h, time 1 day.
Data set [6] is described as follows: Toxicity in […] assessed as body weight at 400 mg/kg, ip measured on day 5 (reference value: 24.4 to 28.4 g). The data set is classed as organism-based. The following applies: in vivo, 120 h, time 5 day.
Data set [7] addresses T1, Nuclear factor erythroid 2-related factor 2 (Rattus norvegicus). As to the kind of experiment: Induction of Nrf2 nuclear translocation in rat PC-12 cells assessed as H2O2-induced GSH-px level at 5 uM incubated for 1 hr followed by H2O2 stimulation and measured after 5 hrs (reference value: 45.92 +/- 3.64 mU/mg). It is filed as cell-based. The note with it: time 6.0 hrs.

For data set [8] the target is unchanged. As to the kind of experiment: Induction of Nrf2 nuclear translocation in rat PC-12 cells assessed as increase in nuclear Nrf2 level at 1.25 to 5 uM incubated for 24 hrs by Western blot analysis. The data set is classed as cell-based. The note with it: dose 1.25-5 µM. (In general: In western blotting, separated proteins are transferred to a membrane and probed.)

For data set [9], the system named is PC-12. As to the kind of experiment: Cytoprotective activity against H2O2-induced cell death in rat PC12 cells assessed as increase in cell viability at 10 uM incubated for 1 hr followed by H2O2 stimulation and measured after 5 hrs in presence of LY294002 by MTT assay. It is filed as functional, cell-based. The note with it: time 6.0 hrs.
Data set [10] deals with T1, Nuclear factor erythroid 2-related factor 2 (Rattus norvegicus). The experiment in a line: Induction of Nrf2 nuclear translocation in rat PC-12 cells assessed as SNP-induced SOD level at 5 uM incubated for 1 hr followed by SNP stimulation and measured after 24 hrs (reference value: 23.74 +/- 2.02 U/mg). The note with it: time 25.0 hrs. The data set is classed as cell-based.

The subject of data set [11] is Rattus norvegicus. As to the kind of experiment: Neuroprotective activity in Sprague-Dawley rat model of middle cerebral artery occlusion-induced ischemic injury assessed as infarction volume at 3 mg/kg, ip administered TID and measured after 6 hrs by TTC staining based assay (reference value: 28.67 +/- 2.90 %). The data set is classed as functional.
Data set [12] concerns PC-12. The experiment in a line: Cytoprotective activity against H2O2-induced cell death in rat PC-12 cells assessed as increase in cell viability incubated for 1 hr followed by H2O2 stimulation and measured after 5 hrs by LDH assay. The data set is classed as functional, cell-based. The note with it: time 6.0 hrs.
The subject of data set [13] is PC-12. As to the kind of experiment: Reversal of LY294002-induced Nrf2 inhibition in rat PC-12 cells at 1.25 to 5 uM incubated for 1 hr followed by LY294002 stimulation and measured after 24 hrs by Western blot analysis. It is filed as functional, cell-based. The note with it: dose 1.25-5 µM, time 25.0 hrs.
The subject of data set [14] is Rattus norvegicus. As to the kind of experiment: Neuroprotective activity in Sprague-Dawley rat model of middle cerebral artery occlusion-induced ischemic injury assessed as decrease in IL-1beta level at 3 to 30 mg/kg, ip administered TID and measured after 24 hrs by ELISA. It is filed as functional, organism-based. The following applies: dose 3-30 mg/kg.
The target in data set [15] is T1, Nuclear factor erythroid 2-related factor 2 (Rattus norvegicus). The experiment in a line: Induction of Nrf2 nuclear translocation in rat PC-12 cells assessed as SNP-induced GSH level at 5 uM incubated for 1 hr followed by SNP stimulation and measured after 24 hrs (reference value: 75.78 +/- 1.74 nM/mg). It is filed as cell-based. The note with it: time 25.0 hrs.

Data set [16] has the same target. The experiment in a line: Induction of Nrf2 nuclear translocation in rat PC-12 cells assessed as H2O2-induced GSH level incubated for 1 hr followed by H2O2 stimulation and measured after 5 hrs. The data set is classed as cell-based. The following applies: dose 2.5-10 µM, time 6.0 hrs.
The target is the same in data set [17]. As to the kind of experiment: Induction of Nrf2 nuclear translocation in rat PC-12 cells assessed as H2O2-induced SOD level at 2.5 uM incubated for 1 hr followed by H2O2 stimulation and measured after 5 hrs (reference value: 29.69 +/- 1.65 U/mg). The data set is classed as cell-based. The note with it: time 6.0 hrs.
Data set [18] has the same target. The experiment in a line: Induction of Nrf2 nuclear translocation in rat PC-12 cells assessed as SNP-induced GSH level at 10 uM incubated for 1 hr followed by SNP stimulation and measured after 24 hrs (reference value: 75.78 +/- 1.74 nM/mg). It is filed as cell-based. The note with it: time 25.0 hrs.
The nature of data set [19]: Half life in Sprague-Dawley rat at 2 mg/kg, iv measured upto 24 hrs by LC-MS/MS analysis. The following applies: in vivo. The data set is classed as ADME, organism-based.
Data set [20] can be described thus: Half life in Sprague-Dawley rat at 20 mg/kg, po measured upto 24 hrs by LC-MS/MS analysis. It is filed as ADME, organism-based. The note with it: in vivo.
For data set [21], the target named is T1, Nuclear factor erythroid 2-related factor 2 (Rattus norvegicus). The experiment in a line: Induction of Nrf2 nuclear translocation in rat PC-12 cells assessed as H2O2-induced GSH level at 5 uM incubated for 1 hr followed by H2O2 stimulation and measured after 5 hrs (reference value: 65.52 +/- 1.44 nM/mg). The data set is classed as cell-based. The note with it: time 6.0 hrs.

Data set [22] has as its system PC-12. The experiment in a line: Inhibition of H2O2-induced apoptosis in rat PC-12 cells assessed as effect on cell morphology incubated for 1 hr followed by H2O2 stimulation and measured after 5 hrs by Hoechst 33258 staining based fluorescence microscopy. It is filed as functional. The note with it: dose 2.5-10 µM, time 6.0 hrs.
In data set [23] the test system is PC-12. The experiment in a line: Antioxidant activity in rat PC-12 cells assessed as reduction in H2O2-induced ROS level incubated for 1 hr followed by H2O2 stimulation and measured after 5 hrs by DCFH-DA staining based fluorescence microscopy. The data set is classed as functional, cell-based. The following applies: dose 2.5-10 µM, time 6.0 hrs.

Molecules are shown by their SMILES. Active and inactive are the calls of the source. The calls are words filed in the database; no cut-off is given here.

With `COc1ccc(-c2nc(-c3ccccc3O)n(-c3ccc(S(N)(=O)=O)cc3)n2)c(O)c1`, the Activity amounted to 51 mU/mg in data set [1]; 30% in the data set on PC-12 [2]; 34.6 U/mg in data set [3]; 70.4 nM/mg in [4]; 24.3 g in data set [5]; 24.9 g in data set [6]. Moreover, the Activity in data set [7] is 65.2 mU/mg; in [10], 34.9 U/mg; with Rattus norvegicus [11], 20.52%; with PC-12 [12], “Dose-dependent effect”; in data set [15], 86.7 nM/mg; in [16] it was “Dose-dependent effect”. The Activity in data set [17] was found to be 36.3 U/mg; in [18], 89.2 nM/mg; in data set [21], 72.5 nM/mg. Besides, the outcome (in [8]; in the data set with PC-12 [13]; in the data set with Rattus norvegicus [14]) was Active. Besides, the result with PC-12 [9] was inactive. Besides, the half-life (usually how long it takes for the measured level to halve) was 5.11 h in [19] and 4.26 h in data set [20]. The inhibition entry in the data set on PC-12 [22] and with PC-12 [23] was “Dose-dependent effect” each time.
